Converted amounts (≈) assume the structure as drawn.
Tested on: KB
Experiment: Cytotoxicity against human KB cells
Assay type: functional, cell-based

Compound | IC50 [µg/mL]
C=C(C)/C=C/c1cc2c(=O)c3c(O)cccc3oc2c(OC)c1O [GLOBULIXANTHONE A] | 2.15 (≈ 6.63 µM)
CC(C)=CCCC1(C)C=Cc2c(cc(O)c3oc4cccc(O)c4c(=O)c23)O1 (configuration not stated) [GLOBULIXANTHONE B] | 1.78 (≈ 4.7 µM)
